Common to all, as to assay type: cell-based
Assay [1] concerns the target T1, hTLR8 (Homo sapiens, UniProt Q9NR97).
T1 construct: host or cells: HEK-Blue hTLR8 (HEK293-derived reporter cell line)
T1 sequence (Q9NR97 27-1041): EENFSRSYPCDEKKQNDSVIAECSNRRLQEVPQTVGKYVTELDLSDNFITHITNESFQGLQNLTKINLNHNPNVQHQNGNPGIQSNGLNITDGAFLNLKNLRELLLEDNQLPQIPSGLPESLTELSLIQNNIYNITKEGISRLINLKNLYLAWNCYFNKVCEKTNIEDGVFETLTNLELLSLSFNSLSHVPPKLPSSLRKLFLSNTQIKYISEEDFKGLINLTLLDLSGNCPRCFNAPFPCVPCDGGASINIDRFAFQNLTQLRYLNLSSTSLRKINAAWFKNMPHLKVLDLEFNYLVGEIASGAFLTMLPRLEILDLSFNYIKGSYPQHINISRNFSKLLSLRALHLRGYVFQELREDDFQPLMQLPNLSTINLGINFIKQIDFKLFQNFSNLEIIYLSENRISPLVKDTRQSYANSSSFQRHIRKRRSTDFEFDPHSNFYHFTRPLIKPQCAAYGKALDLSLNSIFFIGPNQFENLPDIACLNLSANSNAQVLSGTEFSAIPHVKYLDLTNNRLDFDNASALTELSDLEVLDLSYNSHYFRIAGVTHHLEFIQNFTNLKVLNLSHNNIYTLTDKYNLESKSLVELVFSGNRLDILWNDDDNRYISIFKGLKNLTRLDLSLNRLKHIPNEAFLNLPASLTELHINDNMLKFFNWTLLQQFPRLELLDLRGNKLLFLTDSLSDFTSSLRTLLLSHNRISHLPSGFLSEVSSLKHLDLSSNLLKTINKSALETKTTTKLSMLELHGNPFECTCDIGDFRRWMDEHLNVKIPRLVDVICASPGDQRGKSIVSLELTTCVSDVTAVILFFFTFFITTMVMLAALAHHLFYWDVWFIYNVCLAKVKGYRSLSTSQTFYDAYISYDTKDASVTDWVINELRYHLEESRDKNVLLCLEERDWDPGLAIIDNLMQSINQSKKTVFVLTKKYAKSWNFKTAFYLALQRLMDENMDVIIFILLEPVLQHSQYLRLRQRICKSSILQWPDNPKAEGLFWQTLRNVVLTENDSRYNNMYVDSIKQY
In words: TLR7/TLR8 reporter assay, HEK-Blue hTLR8 reporter cells. As to conditions: 17 hours, optical density at 640 nm. The method, then: (§1) Reporter cells lines (namely HEK-Blue Null1, HEK-Blue hTLR7 and HEK-Blue hTLR8) are obtained from InvivoGen. Cells are passed/expanded/stored in liquid nitrogen per supplier's instruction. The cells are typically split twice per week in the growth media of DMEM supplemented with 10% fetal bovine serum, 1× NEAA, 1 mM Pyruvate, 2 mM glutamine, 50 μg/mL penicillin, 50 U/mL streptomycin (each from Gibco) in the presence of the following antibiotics, as shown in Table 3:
(§2) Test samples (at desired concentrations diluted in DMEM) are added to the 96-well assay plate, 20 μL per well. Reporter cells are harvested from the tissue culture flasks by incubation in PBS at 37° C. for two minutes after the media in the flask is removed and cells rinsed with PBS. Cells are counted and diluted in the HEK-Blue Detection media at 0.22×10^6 cells/mL. Then 180 μL of cells are added to the assay plate containing the 20 μL of test samples, and incubated for 17 hours at 37° C. in a 5% CO2 humidified incubator. Optical density at 640 nm is analyzed using an Envision (Perkin Elmer) plate reader.

Assay [2] has as its target T2, hTLR7 (Homo sapiens, UniProt Q9NYK1).
T2 construct: host or cells: HEK-Blue hTLR7 (HEK293-derived reporter cell line)
T2 sequence (Q9NYK1 27-1049): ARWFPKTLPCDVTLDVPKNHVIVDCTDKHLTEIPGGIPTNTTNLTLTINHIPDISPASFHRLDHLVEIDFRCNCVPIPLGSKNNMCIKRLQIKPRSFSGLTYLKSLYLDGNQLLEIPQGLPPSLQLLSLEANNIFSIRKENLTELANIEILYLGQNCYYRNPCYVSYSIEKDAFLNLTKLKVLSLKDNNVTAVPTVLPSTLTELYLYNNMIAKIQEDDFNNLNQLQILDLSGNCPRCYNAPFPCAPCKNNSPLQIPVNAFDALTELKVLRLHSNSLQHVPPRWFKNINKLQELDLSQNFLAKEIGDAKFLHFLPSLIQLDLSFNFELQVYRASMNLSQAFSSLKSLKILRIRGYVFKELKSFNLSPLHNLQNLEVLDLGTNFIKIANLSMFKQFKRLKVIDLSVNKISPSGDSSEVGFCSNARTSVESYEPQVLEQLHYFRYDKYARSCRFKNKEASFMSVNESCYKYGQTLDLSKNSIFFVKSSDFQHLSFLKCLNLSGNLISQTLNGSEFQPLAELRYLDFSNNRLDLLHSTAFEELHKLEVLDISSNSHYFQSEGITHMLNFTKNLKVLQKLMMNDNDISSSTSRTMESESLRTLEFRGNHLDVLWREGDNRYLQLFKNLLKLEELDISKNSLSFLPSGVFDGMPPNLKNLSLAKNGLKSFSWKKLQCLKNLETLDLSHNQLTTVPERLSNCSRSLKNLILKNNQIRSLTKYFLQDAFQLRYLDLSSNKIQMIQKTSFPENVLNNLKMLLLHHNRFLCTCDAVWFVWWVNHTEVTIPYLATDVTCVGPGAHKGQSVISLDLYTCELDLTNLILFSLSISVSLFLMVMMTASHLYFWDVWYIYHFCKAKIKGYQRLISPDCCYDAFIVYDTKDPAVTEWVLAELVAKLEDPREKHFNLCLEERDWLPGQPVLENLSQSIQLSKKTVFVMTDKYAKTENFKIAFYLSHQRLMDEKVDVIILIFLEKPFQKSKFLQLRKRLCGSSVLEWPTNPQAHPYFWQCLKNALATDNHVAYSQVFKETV
As to the kind of experiment: TLR7/TLR8 reporter assay, HEK-Blue hTLR7 reporter cells. The settings on record: 17 hours, optical density at 640 nm. As for the experimental part: as §1, §2

For assay [3], the system named is Human peripheral blood mononuclear cells (PBMC). As to the kind of experiment: PBMC screening assay, TNF-α in supernatant. The settings on record: TNF-α in supernatant of human PBMC, 24 hours, ELISA or HTRF. The method, then: Human peripheral blood mononuclear cells (PBMC) were obtained from BenTek, frozen at 25×10^6 cell/mL in 10% DMSO (Sigma) prepared in fetal bovine serum (Gibco) and stored in liquid nitrogen. For culture PBMC were thawed quickly in a 37° C. water bath and diluted into pre-warmed RPMI 1640 (Lonza) supplemented with 10% fetal bovine serum, 2 mM glutamine, 50 μg/mL penicillin, 50 U/mL streptomycin (all from Gibco) and centrifuged for 5 minutes at 500×g. PBMC were suspended into the growth media described above and cultured at a concentration of 1×10^6 cells per mL at 37° C. in a 5% CO2 incubator.
PBMC were thawed, suspended at a concentration of 1×10^6 cell/mL in growth media and 200 μL was aliquoted into each well of a 96-well plate for a total of 0.2×10^6 cells per well. PBMC were incubated for 16-18 hours at 37° C. in a 5% CO2 humidified incubator. The following day PBMC plates were centrifuged at 500×g for 5 minutes and the growth media was removed. 150 μL of twelve concentrations ranging from 1000 to 0.000238 nM of small molecules prepared in growth media were added to PBMC in duplicate and incubated for 24 hours at 37° C. in a 5% CO2 incubator. Prior to supernatant harvest, cells were spun at 500×g for 5 minutes to remove cell debris. TNF-α activity was assessed in the supernatant by ELISA (eBioscience) or HTRF (CisBio) per the manufacturer's instructions. Optical density at 450 nm and 570 nm (ELISA) or luminescence (HTRF) was analyzed using an Envision (Perkin Elmer) plate reader, as shown in Table 5.
(In an ELISA, binding on a coated surface is turned into a signal by an enzyme label.)

Molecules are shown by their SMILES. Structures can show the parent of a compound that is named as a salt. Where only a bound is given, the exact number is not on record here.

`CCCN(CCC)C(=O)C1=Cc2ccc(C(=O)Nc3cncc(CNC(=O)[C@@H]4CCCN4C(=O)OCc4ccccc4)c3)cc2N=C(N)C1` [Compound 1.17, benzyl (S)-2-(((5-(2-amino-4-(dipropyl-carbamoyl)-3H-benzo[b]azepine-8-carboxamido)pyridin-3-yl)methyl)carbamoyl)pyrrolidine-1-carboxylate]: the EC50 was below 500 nM in assay [1] and above 1000 nM in assay [2].

As to `CCCN(CCC)C(=O)C1=Cc2ccc(C(=O)Nc3cccc([C@H]4CN(Cc5ccccc5)C[C@@H]4C(=O)OC)c3)cc2N=C(N)C1` [Compound 1.18, methyl (3R,4S)-4-(3-(2-amino-4-(dipropylcarbamoyl)-3H-benzo[b]azepine-8-carboxamido)phenyl)-1-benzylpyrrolidine-3-carboxylate trifluoroacetate salt], the EC50 in assay [1] and in assay [2] was above 1000 nM in each case.

On to `CCCN(CCC)C(=O)C1=Cc2ccc(C(=O)Nc3cncc(CNC(=O)[C@H](Cc4ccccc4)NC(=O)OCc4ccccc4)c3)cc2N=C(N)C1` [Compound 1.16, benzyl (S)-(1-(((5-(2-amino-4-(dipropyl-carbamoyl)-3H-benzo[b]azepine-8-carboxamido)pyridin-3-yl)methyl)amino)-1-oxo-3-phenylpropan-2-yl)carbamate], for which the figures for the EC50 in assay [1] and in assay [2] were 500 to 1000 nM and above 1000 nM, respectively.

For the molecule `CCCN(CCC)C(=O)C1=Cc2ccc(C(=O)NCC3OB(O)c4cc(NC(=O)OCc5ccccc5)ccc43)cc2N=C(N)C1` (centres unmarked) [Compound 1.49, benzyl (3-((2-amino-4-(dipropylcarbamoyl)-3H-benzo[b]azepine-8-carboxamido)methyl)-1-hydroxy-1,3-dihydrobenzo[c][1,2]oxaborol-6-yl)carbamate TFA salt], the EC50 in assay [3] fell in the range of 500 to 1000 nM.

Consider `CCCN(CCC)C(=O)C1=Cc2ccc(C(=O)NCC3OB(O)c4ccccc43)cc2N=C(N)C1` (centres unmarked) [Compound 1.47, 2-amino-N^8-((1-hydroxy-1,3-dihydro-benzo[c][1,2]oxaborol-3-yl)methyl)-N4,N4-dipropyl-3H-benzo[b]azepine-4,8-dicarboxamide], for which the EC50 in assay [3] was 500 to 1000 nM.

With `CCCN(CCC)C(=O)C1=Cc2ccc(C(=O)Nc3cncc(CNC(=O)[C@@H](NC(=O)OCc4ccccc4)C(C)C)c3)cc2N=C(N)C1` [Compound 1.15, benzyl (S)-(1-(((5-(2-amino-4-(dipropyl-carbamoyl)-3H-benzo[b]azepine-8-carboxamido)pyridin-3-yl)methyl)amino)-3-methyl-1-oxobutan-2-yl)carbamate], the EC50 in assay [1] is below 500 nM; in assay [2] it was above 1000 nM.

With `CCCN(CCC)C(=O)C1=Cc2ccc(C(=O)Nc3cnc4c(c3)C(N)CCC4)cc2N=C(N)C1` (centres unmarked) [Compound 1.39, 2-amino-N^8-(5-amino-5,6,7,8-tetrahydro-quinolin-3-yl)-N^4,N^4-dipropyl-3H-benzo-[b]azepine-4,8-dicarbox-amide], the EC50 in assay [3] was below 500 nM.

On to `CCCN(CCC)C(=O)C1=Cc2ccc(C(=O)Nc3cccc(C(=O)NCCNC(=O)OCc4ccccc4)c3)cc2N=C(N)C1` [Compound 1.27, benzyl (2-(3-(2-amino-4-(dipropylcarbamoyl)-3H-benzo[b]azepine-8-carboxamido)benzamido)ethyl)carbamate], for which, in assay [3], the EC50 is below 500 nM.

In assay [3], `CCCN(CCC)C(=O)C1=Cc2ccc(C(=O)Nc3cnc4c(c3)CN(Cc3ccccc3)CC4)cc2N=C(N)C1` [Compound 1.48, 2-amino-N^8-(6-benzyl-5,6,7,8-tetrahydro-1,6-naphthyridin-3-yl)-N^4,N^4-dipropyl-3H-benzo[b]azepine-4,8-dicarboxamide] had an EC50 below 500 nM.

In assay [3], `CCCN(CCC)C(=O)C1=Cc2ccc(C(=O)Nc3cnc4c(c3)CNCC4)cc2N=C(N)C1` [Compound 1.50, 2-amino-N^4,N^4-dipropyl-N^8-(5,6,7,8-tetrahydro-1,6-naphthyridin-3-yl)-3H-benzo[b]azepine-4,8-dicarboxamide] displayed an EC50 below 500 nM.

As to `CCCN(CCC)C(=O)C1=Cc2ccc(C(=O)Nc3cncc(CNC(=O)NCc4ccccc4)c3)cc2N=C(N)C1` [Compound 1.32, 2-amino-N^8-(5-((3-benzylureido)methyl)pyridin-3-yl)-N^4,N^4-dipropyl-3H-benzo[b]azepine-4,8-dicarboxamide bis TFA salt], the EC50 in assay [3] was below 500 nM.

In assay [3], `CCCN(CCC)C(=O)C1=Cc2ccc(C(=O)Nc3cccc(CNC(=O)CCc4ccccc4)c3)cc2N=C(N)C1` [Compound 1.31, 2-amino-N^8-(3-((3-phenylpropanamido)methyl)phenyl)-N^4,N^4-dipropyl-3H-benzo[b]azepine-4,8-dicarboxamide bis TFA salt] had an EC50 below 500 nM.

For the molecule `CCCN(CCC)C(=O)C1=Cc2ccc(C(=O)Nc3cncc(CNC(=O)[C@H](N)Cc4ccccc4)c3)cc2N=C(N)C1` [Compound 1.36, (R)-2-amino-N^8-(5-((2-amino-3-phenyl-propanamido)-methyl)pyridine-3-yl)-N^4,N^4-dipropyl-3H-benzo[b]azepine-4,8-dicarboxamide], the EC50 in assay [3] is below 500 nM.

The EC50 is the concentration that produces a half-maximal response. High values mean weaker potency, low ones greater potency.

The values are drawn from US10428045B2, “Benzazepine compounds, conjugates, and uses thereof” (Silverback Therapeutics, Inc., priority 2017, dated 2019).
